From US7803801B2, “Aminopyridine compounds having Syk inhibitory activity” (Japan Tobacco, Inc., priority 2005, dated 2010)
Structures can show the parent of a compound that is named as a salt. Where two headings read alike, the source gives them in different places.

Legend:
[1] = molecular target: GST-Syk Full Protein (human) (Homo sapiens, UniProt P43405); assay: Syk kinase inhibition test (HTRF method); type: biochemical
Summary of the method: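 Human GST-Syk full-length (6.4 nM) phosphorylated biotin-EDPDYEWPSA-NH2 (250 nM) with 100 μM ATP in HEPES pH 7.0/MgCl2 buffer, 2% DMSO, 30 min at room temperature. EDTA stop, then HTRF detection (streptavidin-XL665, Eu anti-phosphotyrosine) after 1 h; 665/620 ratio read.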

[2] = test system: cultured human mast cells; assay: Degranulation inhibition test using cultured human mast cells (IgE cross-linking, β-Hexosaminidase release); type: cell-based; details: Mast cell, cultured human mast cells, read-out: human degranulation ave. IC50
Summary of the method: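 CD34+ cord-blood cells cultured ≥8 weeks with SCF/IL-6/IL-3; FcεRI primed 5 days with rhIL-4 (1 ng/mL) and hIgE (0.5 μg/mL). Compound (0.1% DMSO) preincubated 10 min at 37 °C, then anti-IgE (final 10 μg/mL) 30 min; released β-hexosaminidase read at 405 nm versus total lysate, IC50 (M).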

[3] = HTRF, 100 μM ATP, 30 min room temperature, average, read-out: sykHTRF ave IC50
[4] = anti-hIgE stimulation, β-Hexosaminidase index, average
[5] = Tables 1-x, compounds A, read-out: sykHTRF ave IC50
[6] = Tables 2-x, thiophene compounds B, read-out: sykHTRK ave IC50
[7] = Tables 2-x, thiophene compounds B

SMILES	IC50 [1, 3] [nM]	IC50 [2, 4] [nM]	IC50 [1, 5] [nM]	IC50 ([2]; Tables 1-x, compounds A) [nM]	further results
CC(=O)N[C@@H](Cc1ccc(NC(=O)OCc2ccccc2)cc1)c1ncc(-c2cccc(Nc3cc(C)ccn3)n2)s1 [Compound A-178]	> 1000	> 1000	–	–	–
Cc1ccnc(Nc2cccc(-c3cnc([C@H]4CC[C@H](C(=O)N5CC[C@H](O)[C@@H](O)C5)CC4)s3)n2)c1 [Compound A-225]	100 to 1000	100 to 1000	–	–	–
Cc1ccnc(Nc2cccc(-c3cnc(N4CC[C@@H](N)C4)s3)n2)c1 [Compound A-473, (R)-1-{5-[6-(4-methylpyridin-2-ylamino)pyridin-2-yl]thiazol-2-yl}pyrrolidin-3-ylamine]	–	–	< 100	> 1000	–
Cc1ccnc(Nc2cccc(-c3cnc(C4CCN(C(=O)CS(C)(=O)=O)CC4)s3)n2)c1 [Compound A-397]	–	–	100 to 1000	100 to 1000	–
CC(=O)N1CCC(N(CC(F)(F)F)c2ncc(-c3cccc(Nc4cc(C)ccn4)n3)s2)CC1 [Compound A-535, 1-{4-[N-{5-[6-(4-methylpyridin-2-ylamino)pyridin-2-yl]thiazol-2-yl}-N-(2,2,2-trifluoroethyl)amino]piperidin-1-yl}ethanone]	–	–	< 100	> 1000	–
CON(C)C(=O)[C@H]1CC[C@H](c2ncc(-c3cccc(Nc4cc(C)ccn4)n3)s2)CC1 [Compound A-265]	100 to 1000	100 to 1000	–	–	–
Cc1ccnc(Nc2cccc(-c3cnc(C4CCCNC4)s3)n2)c1 (stereo not shown) [Compound A-390]	–	–	100 to 1000	100 to 1000	–
CON=C(C)c1ccc(-c2cccc(Nc3cc(C)ccn3)n2)s1 [Compound B-18]	–	–	–	–	IC50 [1, 6]: 100 to 1000 nM; IC50 [2, 7]: > 1000 nM
C/C(=N\OCCO)c1ccc(-c2cccc(Nc3cc(C)ccn3)n2)s1 [Compound B-38, 1-{5-[6-(4-methylpyridin-2-ylamino)pyridin-2-yl]thiophen-2-yl}ethanone O-(2-hydroxyethyl)oxime]	–	–	–	–	IC50 [1, 6]: < 100 nM; IC50 [2, 7]: 100 to 1000 nM
CC(=O)N[C@@H](C)c1nc(N)c(-c2cccc(Nc3cc(C)ccn3)n2)s1 [Compound A-115]	> 1000	> 1000	–	–	–
Cc1ccnc(Nc2cccc(-c3cnc(CN4C[C@@H](O)[C@@H](O)C4)s3)n2)c1 [Compound A-381]	–	–	100 to 1000	100 to 1000	–
COC(=O)CCN(Cc1ncc(-c2cccc(Nc3cc(C)ccn3)n2)s1)C(C)=O [Compound A-164]	100 to 1000	> 1000	–	–	–
Cc1ccnc(Nc2cccc(-c3cnc(N4CCN(CC(=O)O)CC4)s3)n2)c1 [Compound A-589, (4-{5-[6-(4-methylpyridin-2-ylamino)pyridin-2-yl]thiazol-2-yl}piperazin-1-yl)acetic acid dihydrochloride]	–	–	< 100	> 1000	–
CC(=O)N1CCC(N(CCNS(C)(=O)=O)c2ncc(-c3cccc(Nc4cc(C)ccn4)n3)s2)CC1 [Compound A-524, N-[2-(N′-(1-acetylpiperidin-4-yl)-N′-{5-[6-(4-methylpyridin-2-ylamino)pyridin-2-yl]thiazol-2-yl}amino)ethyl]methanesulfonamide]	–	–	< 100	> 1000	–
CC(=O)c1ccc(-c2cccc(Nc3nccc(C)c3[N+](=O)[O-])n2)s1 [Compound B-62]	–	–	–	–	IC50 [1, 6]: > 1000 nM; IC50 [2, 7]: > 1000 nM
CC(=O)c1sc(-c2cccc(Nc3cc(C)ccn3)n2)cc1C [Compound B-40]	–	–	–	–	IC50 [1, 6]: 100 to 1000 nM; IC50 [2, 7]: > 1000 nM
CCOC(=O)Cc1ccnc(Nc2cccc(-c3cnc([C@@H]4CCC(=O)N4)s3)n2)c1 [Compound A-332]	100 to 1000	100 to 1000	–	–	–
Cc1ccnc(Nc2cccc(-c3cnc(CNC(=O)CC(=O)O)s3)n2)c1 [Compound A-169]	100 to 1000	> 1000	–	–	–
CC(=O)NCCCC[C@H](NC(C)=O)c1ncc(-c2cccc(Nc3cc(C)ccn3)n2)s1 [Compound A-64]	100 to 1000	100 to 1000	–	–	–
CCOC(=O)c1cc(Nc2cc(C)ccn2)nc(-c2ccc(C(C)=O)s2)c1 [Compound B-77]	–	–	–	–	IC50 [1, 6]: > 1000 nM; IC50 [2, 7]: > 1000 nM

Further lines, with some results ahead:

IC50 [1, 3] [nM]	IC50 [2, 4] [nM]	IC50 [1, 5] [nM]	IC50 ([2]; Tables 1-x, compounds A) [nM]	SMILES	further results
< 100	100 to 1000	–	–	Cc1ccnc(Nc2cccc(-c3cnc([C@H]4CC[C@@H](C#N)CC4)s3)n2)c1 [Compound A-317, cis-4-{5-[6-(4-methylpyridin-2-ylamino)pyridin-2-yl]thiazol-2-yl}cyclohexanecarbonitrile]	–
< 100	> 1000	–	–	Cc1ccnc(Nc2cccc(-c3cnc([C@H]4CC[C@H](C(=O)N[C@@H](CO)Cc5cnc[nH]5)CC4)s3)n2)c1 [Compound A-303, N—[(R)-2-hydroxy-1-(3H-imidazol-4-ylmethyl)ethyl]-trans-4-{5-[6-(4-methylpyridin-2-ylamino)pyridin-2-yl]thiazol-2-yl}cyclohexanecarboxamide]	–
–	–	100 to 1000	100 to 1000	Cc1ccnc(Nc2cccc(-c3cnc(CN4C[C@H](NCc5ccccc5)[C@@H](O)C4)s3)n2)c1 [Compound A-400]	–
100 to 1000	100 to 1000	–	–	Cc1ccnc(Nc2cccc(-c3cnc(CN[C@H]4CC[C@H](O)CC4)s3)n2)c1 [Compound A-191]	–
100 to 1000	> 1000	–	–	Cc1ccnc(Nc2cccc(-c3cnc(CNc4ccc(CC(=O)N5CCC(O)CC5)cc4)s3)n2)c1 [Compound A-278]	–
100 to 1000	> 1000	–	–	Cc1ccnc(Nc2cccc(-c3cnc(CNCCC(=O)O)s3)n2)c1 [Compound A-165]	–
100 to 1000	100 to 1000	–	–	Cc1ccnc(Nc2cccc(-c3cnc([C@H]4CC[C@H](C(=O)N5CCN(C)CC5)CC4)s3)n2)c1 [Compound A-300]	–
–	–	> 1000	> 1000	Cc1ccnc(Nc2cccc(-c3cnc(CN4C(=O)CN(Cc5ccccc5)CC4=O)s3)n2)c1 [Compound A-391]	–
100 to 1000	> 1000	–	–	CC(=O)NCC(=O)N[C@@H](C)c1ncc(-c2cccc(Nc3cc(C)ccn3)n2)s1 [Compound A-355]	–
< 100	100 to 1000	–	–	Cc1ccnc(Nc2cccc(-c3cnc(CCC4CCC(=O)CC4)s3)n2)c1 [Compound A-172, 4-(2-{5-[6-(4-methylpyridin-2-ylamino)pyridin-2-yl]thiazol-2-yl}ethyl)cyclohexanone]	–
100 to 1000	100 to 1000	–	–	Cc1ccnc(Nc2cccc(-c3cnc([C@H]4CC[C@H](C(=O)N5CCC(NC(=O)CO)C5)CC4)s3)n2)c1 (stereo partly shown) [Compound A-313]	–
< 100	< 100	–	–	COc1ccnc(Nc2cccc(-c3cnc([C@H]4CC[C@H](C(N)=O)CC4)s3)n2)c1 [Compound A-339, trans-4-{5-[6-(4-methoxypyridin-2-ylamino)pyridin-2-yl]thiazol-2-yl}cyclohexanecarboxamide]	–
–	–	< 100	100 to 1000	CNC(=O)COCC1CCCN(c2ncc(-c3cccc(Nc4cc(C)ccn4)n3)s2)C1 (stereo not shown) [Compound A-502, N-methyl-2-(1-{5-[6-(4-methylpyridin-2-ylamino)pyridin-2-yl]thiazol-2-yl}piperidin-3-ylmethoxy)acetamide]	–
< 100	> 1000	–	–	Cc1ccnc(Nc2cccc(-c3cnc(C4CCC(=NO)CC4)s3)n2)c1 (stereo not shown) [Compound A-74, 4-{5-[6-(4-methylpyridin-2-ylamino)pyridin-2-yl]thiazol-2-yl}cyclohexanone oxime]	–
–	–	100 to 1000	100 to 1000	CC(=O)N(C)[C@@H](Cc1ccc(O)cc1)c1ncc(-c2cccc(Nc3cc(C)ccn3)n2)s1 [Compound A-376]	–
